Results from patent US6541978B1, “Method, system and device for producing signals from a substance biological and/or chemical activity” (priority 1998, dated 2003).
Several values for one entry are separate records, joined by “and”; a condition that tells them apart may be missing. Identical values can stand only once.

Assays:
skin of a guinea-pig = experiment: Guinea-pig cutaneous test (Evans blue marks); assay type: in vivo; details: 0.1 ml ponderal solution at 10^−6M injected under the skin; single injections
Description: As an example, with reference to FIG. 4, a presentation is given below of the test known under the name of guinea-pig cutaneous test and described in chapter 11 (p.346-351) in the second edition of “Immunology” edited by Jean-Francois Bach, coll. John Wiley & Sons; or further in the 3rd edition of “The handbook of Experimental Immunology” edited by D. M. Weir, coll. Blackwell, Ch. 21 “Passive cutaneous anaphylaxis (PCA)” by W. E. Brocklehurst; or further in the work edited by Williams & Chase entitled “Methods in IMMUNOLOGY and IMMUNOCHEMISTRY”—Vol. 5—Ch. 19 “Anaphylaxis”.
The guinea-pig is used when still alive, and is given a n intravenous injection of a blue colorant (Evans blue—Sigma E 2129) which fixes on the blood albumin.
The test is carried out by injecting under the skin of the animal prepared in this way, 0.1 ml of the solution whose activity is to be controlled. Nextone measures the diameter of the blue marks appearing around the points of injection. In order to do this the skin is scanned, and then the bitmap image file is recorded. Finally the sizes of the blue marks due to the reaction are evaluated.
In the example described, a control was carried out of the presence of signals characteristic of the biological activity of the acetylcholine neuromediator (ACh; Sigma A2661) in solution in a physiological solution, by analysing the effects o n the skin of a guinea-pig: […]

[1] = system: isolated guinea-pig heart; experiment: Perfused isolated guinea-pig heart (Langendorff), injections of the substances; details: injection of substance 10^−6M
Description: As an example of a biological control system, an d referring to FIG. 2, a test will be described below derived from that known under the test name of a perfused isolated guinea-pig heart (or Langendorff experiment) and whose process is described in the work entitled: “Methods in Immunology and Immunochemistry” published by Williams and Chase, Academic Press 1976, particularly page 68; or further in the work entitled: “L'experimentation animate en cardiologie” INSERM Médecine-Science—Coll. Flammarion—Author Bernard […]—particularly Ch. 3.1 p.81 “Organe Isolé—Coceur Isolé selon Langendorff—Montage à pression coronaire constante”; or further in the work entitled “The isolated perfused Heart according to Langendorff” H. J. Döiring, H. Dehnart—Biomesstechnik—Verlag March GmbH, D-7806 March. In FIG. 2 one recognises the diagram known from the Langendorff experiment. The equipment described in these works has been completed by a transducer in the form of a bobbin 60 of a varnished copper wire of diameter 0.5 mm, with a diameter of 110 mm, a length of 40 mm and with an impedance of 4 ohms.
The fraction collector collected the tubes making it possible to measure the debit of the guinea-pig heart at the rate of 1 tube per minute. The buffer solution crossing the heart had the following composition: CaCl 2 mM, NaHCO3 25 mM, NaCl 118 mM, MgSO4 1.2 mM, KHPO4 1.2 mM, Glucose 11 mM, Pyruvate 2 mM.

CC(=O)OCC[N+](C)(C)C [ACh, acetylcholine]
Dia. in mm (diameter of the blue marks around the points of injection) (skin of a guinea-pig): 23 mm and 25 mm and 21 mm and 18 mm

CNc1ccc2oc(C[C@H]3O[C@@]4(CC[C@H]3C)O[C@H]([C@H](C)C(=O)c3ccc[nH]3)[C@H](C)C[C@H]4C)nc2c1C(=O)O [ionophoretic-calcium, ionophoretic-calcium A 23187]
quantity of the buffer solution recuperated in the collector tubes ([1]; time 1 min): 5.1 mL
quantity of the buffer solution recuperated in the collector tubes ([1]; time 2 min): 5.0 mL
quantity of the buffer solution recuperated in the collector tubes ([1]; time 3 min): 5.2 mL
quantity of the buffer solution recuperated in the collector tubes ([1]; time 4 min): 5.0 mL
quantity of the buffer solution recuperated in the collector tubes ([1]; time 5 min): 4.9 mL
quantity of the buffer solution recuperated in the collector tubes ([1]; time 6 min): 5.4 mL
quantity of the buffer solution recuperated in the collector tubes ([1]; time 7 min): 5.6 mL
quantity of the buffer solution recuperated in the collector tubes ([1]; time 8 min): 6.2 mL
quantity of the buffer solution recuperated in the collector tubes ([1]; time 9 min): 6.4 mL
quantity of the buffer solution recuperated in the collector tubes ([1]; time 10 min): 6.4 mL
quantity of the buffer solution recuperated in the collector tubes ([1]; time 11 min): 6.2 mL
quantity of the buffer solution recuperated in the collector tubes ([1]; time 12 min): 6.0 mL
quantity of the buffer solution recuperated in the collector tubes ([1]; time 13 min): 6.0 mL
quantity of the buffer solution recuperated in the collector tubes ([1]; time 14 min): 5.9 mL
quantity of the buffer solution recuperated in the collector tubes ([1]; time 15 min): 6.0 mL
quantity of the buffer solution recuperated in the collector tubes ([1]; time 20 min): 5.7 mL
quantity of the buffer solution recuperated in the collector tubes ([1]; time 25 min): 5.4 mL
quantity of the buffer solution recuperated in the collector tubes ([1]; time 30 min): 5.2 mL

Cn1c(=O)c2c(ncn2C)n(C)c1=O [caffeine]
quantity of the buffer solution recuperated in the collector tubes ([1]; time 1 min): 5.1 mL
quantity of the buffer solution recuperated in the collector tubes ([1]; time 2 min): 5.0 mL
quantity of the buffer solution recuperated in the collector tubes ([1]; time 3 min): 5.0 mL
quantity of the buffer solution recuperated in the collector tubes ([1]; time 4 min): 4.9 mL
quantity of the buffer solution recuperated in the collector tubes ([1]; time 5 min): 4.6 mL
quantity of the buffer solution recuperated in the collector tubes ([1]; time 6 min): 4.2 mL
quantity of the buffer solution recuperated in the collector tubes ([1]; time 7 min): 4.0 mL
quantity of the buffer solution recuperated in the collector tubes ([1]; time 8 min): 4.1 mL
quantity of the buffer solution recuperated in the collector tubes ([1]; time 9 min): 4.0 mL
quantity of the buffer solution recuperated in the collector tubes ([1]; time 10 min): 4.2 mL
quantity of the buffer solution recuperated in the collector tubes ([1]; time 11 min): 4.1 mL
quantity of the buffer solution recuperated in the collector tubes ([1]; time 12 min): 4.3 mL
quantity of the buffer solution recuperated in the collector tubes ([1]; time 13 min): 4.4 mL
quantity of the buffer solution recuperated in the collector tubes ([1]; time 14 min): 4.5 mL
quantity of the buffer solution recuperated in the collector tubes ([1]; time 15 min): 4.5 mL
quantity of the buffer solution recuperated in the collector tubes ([1]; time 20 min): 4.6 mL
quantity of the buffer solution recuperated in the collector tubes ([1]; time 25 min): 4.5 mL
quantity of the buffer solution recuperated in the collector tubes ([1]; time 30 min): 4.5 mL
